Assay results from ChEMBL document CHEMBL4330111 (Bioorg Med Chem Lett, 2019).

Experiments:
[1] = Intrinsic clearance in mouse liver microsomes assessed per mg protein; type: ADME, Microsome
[2] = tested on: Acinetobacter baumannii; assay: Antibacterial activity against Acinetobacter baumannii ATCC 19606; type: functional; conditions: ATCC 19606 = CIP 70.34 = JCM 6841
[3] = tested on: Klebsiella pneumoniae; assay: Antibacterial activity against Klebsiella pneumoniae BAA 2146; type: functional; conditions: ATCC BAA-2146
[4] = tested on: Staphylococcus aureus; assay: Antibacterial activity against Staphylococcus aureus ATCC 43300; type: functional
[5] = Kinetic solubility of the compound in pH 7.4 phosphate buffered saline; type: physicochemical; conditions: for Kinetic_solubility: buffer; for solubility kinetic: phosphate buffered saline, read-out: Kinetic_solubility
[6] = Half life in mouse liver microsomes; type: ADME, Microsome
[7] = tested on: Enterococcus faecium; assay: Antibacterial activity against Enterococcus faecium NCTC 7171; type: functional
[8] = tested on: Pseudomonas aeruginosa; assay: Antibacterial activity against Pseudomonas aeruginosa HER1018; type: functional
[9] = AUC (0 to 5 hrs) in CD-1 mouse at 25 mg/kg, po administered as single dose by LC-MS/MS analysis; type: ADME, organism-based; design: dose 25 mg/kg, route oral; conditions: in vivo
[10] = Cmax in CD-1 mouse at 25 mg/kg, po administered as single dose by LC-MS/MS analysis; type: ADME, organism-based; design: dose 25 mg/kg, route oral; conditions: in vivo
[11] = Antibacterial activity against Enterobacter cloacae ATCC 13047; type: functional, Enterobacter cloacae subsp. cloacae
[12] = Ratio of drug level in CD-1 mouse lungs to plasma at 25 mg/kg, po administered as single dose measured after 5 hrs by LC-MS/MS analysis; type: ADME, organism-based; conditions: lung/plasma
[13] = tested on: Mycobacterium tuberculosis; assay: microbe, parasite or virus in culture; conditions: H37Rv, 144 h
Description: Antitubercular activity against Mycobacterium tuberculosis H37Rv after 6 days by alamar blue reagent based assay

[14] = tested on: Vero; assay: Cytotoxicity against African green monkey Vero cells after 48 hrs by MTT assay; type: cell-based; conditions: chlorocebus sabaeus

| SMILES | MIC [13] | CC50 [14] [µM] | other results |
| --- | --- | --- | --- |
| COc1ccccc1OCc1ccc(C(C)(C)NC(=O)c2ccc([N+](=O)[O-])o2)cc1 | 0.019 µM |  | Intrinsic clearance [1]: 59.8 µL/min; MIC [2]: > 120 µM; MIC [3]: > 120 µM; MIC [4]: > 120 µM; Kinetic_solubility [5]: 0.182 µM; t1/2 [6]: 11.6 min; MIC [7]: > 120 µM; MIC [8]: > 120 µM; AUC [9]: 210 ng·h/mL; Cmax ([10]; CD-1, mouse, read-out: Cmax): 210 nM; MIC [11]: > 120 µM; Kp at 5 h [12]: 0.04 to 0.09 |
| CO[C@H]1/C=C/O[C@@]2(C)Oc3c(C)c(O)c4c(O)c(c(/C=N/N5CCN(C)CC5)c(O)c4c3C2=O)NC(=O)/C(C)=C\C=C\[C@H](C)[C@H](O)[C@@H](C)[C@@H](O)[C@@H](C)[C@H](OC(C)=O)[C@@H]1C [RIFAMPIN] | 0.0125 to 0.05 µg/mL |  |  |
| CC(C)(NC(=O)c1ccc([N+](=O)[O-])o1)c1ccc(C(F)(F)F)cc1 | 0.78 µM | > 150 |  |
| O=C(NCc1ccccc1)c1ccc([N+](=O)[O-])o1 | 0.39 µM | 13 | Intrinsic clearance [1]: 24.3 µL/min; MIC [2]: > 200 µM; MIC [3]: > 200 µM; MIC [4]: > 200 µM; solubility kinetic [5]: > 500 µM; t1/2 [6]: 28.5 min; MIC [7]: > 200 µM; MIC [8]: > 200 µM; AUC [9]: 547 ng·h/mL; Cmax ([10]; CD-1, mouse, read-out: Cmax): 1160 nM; MIC [11]: > 200 µM |
| COc1ccc(OCc2ccc(C(C)(C)NC(=O)c3ccc([N+](=O)[O-])o3)cc2)cc1 | 0.078 µM | > 120 | Intrinsic clearance [1]: 15.4 µL/min; MIC [2]: > 120 µM; MIC [3]: > 120 µM; MIC [4]: > 120 µM; solubility kinetic [5]: < 0.06 µM; t1/2 [6]: 45 min; MIC [7]: > 120 µM; MIC [8]: > 120 µM; AUC [9]: 11 ng·h/mL; Cmax ([10]; mouse): 5 ng/mL; MIC [11]: > 120 µM |
| O=C(NCc1ccccc1Cl)c1ccc([N+](=O)[O-])o1 | 6.2 µM | 11 |  |
| CC(C)(NC(=O)c1ccc([N+](=O)[O-])o1)c1ccc(-c2ccc(Cl)cc2)cc1 | 25 µM | > 140 |  |
| O=C(Nc1cc2ccccc2o1)c1ccc([N+](=O)[O-])o1 | 0.2 µM | 40 |  |
| CC(C)(NC(=O)c1ccc([N+](=O)[O-])o1)c1ccc(COc2ccccc2C(F)(F)F)cc1 | 0.31 µM | 14 |  |
| CC(NC(=O)c1ccc([N+](=O)[O-])o1)c1ccccc1 (stereo unspecified) | 6.2 µM | 24 |  |
| O=C(NCc1ccc(Cl)cc1)c1ccc([N+](=O)[O-])o1 | 0.098 µM |  |  |
| O=C(NC1(c2ccccc2)CC1)c1ccc([N+](=O)[O-])o1 | 6.2 µM | 46 |  |
| CC(C)(NC(=O)c1ccc([N+](=O)[O-])o1)c1ccc(COc2ccc(OC(F)(F)F)cc2)cc1 | 0.39 µM | 6.7 |  |
| O=C(NC(=O)c1ccc([N+](=O)[O-])o1)c1ccccc1 | 25 µM | 3 |  |
| CC(C)(NC(=O)c1ccc([N+](=O)[O-])o1)c1ccc(COc2ccc(C(F)(F)F)cc2)cc1 | 0.39 µM | 7 |  |
| O=C(NCc1ccc(CN2CCOCC2)cc1)c1ccc([N+](=O)[O-])o1 | 1.2 µM | 18 |  |
| O=C(NC(c1ccccc1)C1CC1)c1ccc([N+](=O)[O-])o1 (stereo unspecified) | 12 µM | 22 |  |
| O=C(NCCCc1ccc(Cl)cc1)c1ccc([N+](=O)[O-])o1 | 0.39 µM | 19 |  |
| CC(C)(NC(=O)c1ccc([N+](=O)[O-])o1)c1ccc(F)cc1 | 0.78 µM | 42 |  |
| CC(C)(NC(=O)c1ccc([N+](=O)[O-])o1)c1ccc(OC(F)(F)F)cc1 | 0.2 µM | 70 |  |
| CC(C)C(NC(=O)c1ccc([N+](=O)[O-])o1)c1ccccc1 (stereo unspecified) | 6.2 µM | 22 |  |
| CC(C)(NC(=O)c1ccc([N+](=O)[O-])o1)c1ccc(COc2ccc(Cl)cc2)cc1 | 0.12 µM |  | AUC [9]: 34 ng·h/mL; Cmax ([10]; CD-1, mouse, read-out: Cmax): 22 nM |

| SMILES | MIC [13] | CC50 [14] [µM] | other results |
| --- | --- | --- | --- |
| CC(C)(NC(=O)c1ccc([N+](=O)[O-])o1)c1ccc(C#N)cc1 | > 10 µM | 83 |  |
| O=C(NCCc1ccccc1)c1ccc([N+](=O)[O-])o1 | 3.1 µM | 12 |  |
| O=C(NCCCc1ccccc1)c1ccc([N+](=O)[O-])o1 | 0.78 µM | 11 |  |
| CC(C)(NC(=O)c1ccc([N+](=O)[O-])o1)c1ccc(COc2ccccc2Cl)cc1 | 0.31 µM | 30 |  |
| CC(C)(NC(=O)c1ccc([N+](=O)[O-])o1)c1ccc(Oc2ccc(Cl)cc2)cc1 | 0.39 µM | 67 |  |
| O=C(NCc1ccc(Oc2ccc(Cl)cc2)cc1)c1ccc([N+](=O)[O-])o1 | 0.062 µM |  |  |
| CC(C)(NC(=O)c1ccc([N+](=O)[O-])o1)c1ccc(COc2ccccc2OC(F)(F)F)cc1 | 0.098 µM | 13 |  |
| O=C(NCc1ccc(COc2ccc(Cl)cc2)cc1)c1ccc([N+](=O)[O-])o1 | 0.039 µM |  |  |
| O=C(Nc1ccccc1)c1ccc([N+](=O)[O-])o1 | 3.1 µM | 6.7 |  |
| COc1ccc(C(C)(C)NC(=O)c2ccc([N+](=O)[O-])o2)cc1 | 0.078 µM |  |  |
| CC(C)(C)c1ccc(C(C)(C)NC(=O)c2ccc([N+](=O)[O-])o2)cc1 | 0.39 µM | > 150 |  |
| CC(C)(NC(=O)c1ccc([N+](=O)[O-])o1)c1ccc(CN2CCOCC2)cc1 | > 10 µM | 130 |  |
| O=C(NCCc1ccc(Cl)cc1)c1ccc([N+](=O)[O-])o1 | 0.39 µM | 5.4 |  |
| CC(C)(C)C(NC(=O)c1ccc([N+](=O)[O-])o1)c1ccccc1 (stereo unspecified) | 25 µM | 10 |  |
| O=C(Nc1cc2ccccc2s1)c1ccc([N+](=O)[O-])o1 | 0.078 µM | 38 | Intrinsic clearance [1]: 371 µL/min; Kinetic_solubility [5]: 5.61 µM; t1/2 [6]: 1.87 min |
| O=C(NCc1ccc(-c2ccc(Cl)cc2)cc1)c1ccc([N+](=O)[O-])o1 | 0.12 µM | 4.4 |  |
| O=C(Nc1ccc(Cl)cc1)c1ccc([N+](=O)[O-])o1 | 0.78 µM | 1.5 |  |
| CN(C)c1ccc(C(C)(C)NC(=O)c2ccc([N+](=O)[O-])o2)cc1 | 0.2 µM | 79 |  |
| CC(C)(NC(=O)c1ccc([N+](=O)[O-])o1)c1ccc(Cl)cc1 | 0.15 µM |  |  |
| O=C(Nc1ccc2ccccc2c1)c1ccc([N+](=O)[O-])o1 | 0.0078 µM | > 150 | Intrinsic clearance [1]: 325 µL/min; Kinetic_solubility [5]: 1.5 µM; t1/2 [6]: 2.13 min |
| O=C(NCc1cccc(Cl)c1)c1ccc([N+](=O)[O-])o1 | 0.78 µM | 5.5 |  |
| CC(C)(NC(=O)c1ccc([N+](=O)[O-])o1)c1ccccc1 | 0.78 µM |  | Intrinsic clearance [1]: 9.3 µL/min; Kinetic_solubility [5]: 388 µM; t1/2 [6]: 74.5 min; AUC [9]: 717 ng·h/mL; Cmax ([10]; CD-1, mouse, read-out: Cmax): 1620 nM |
